Assay [1] concerns rat aorta. Description: Rat Aorta Protocol: relaxation of phenylephrine-contracted rings of rat aorta (endothelium removed). On the procedure: Rings of rat aorta (endothelium removed) were prepared for the measurement of isometric force in isolated tissue organ chambers essentially as previously described by T. J. Rimele et al in the Journal of Pharmacol. Exp. Ther. 245:102-111 (1988). The experimental portion of the protocol began with the addition of methylene blue (1×10^-5 M) and propranolol (1×10^-6 M) to each organ chamber to inhibit basal cGMP accumulation due to soluble guanylate cyclase and beta-adrenoceptors.Phenylephrine (1×10^-7 M) was then added and the rings were allowed to obtain a stable contractile response after which time, the test compound was added in a cumulative fashion. The relaxation induced by each concentration of the test compound was expressed as a percentage of the maximal relaxation produced by nitroprusside (1×10^-4 M) The results were graphically represented as a plot of the percentage relaxation vs. the negative log of the molar concentration of the test compound. The IC50 (concentration of test compound which produced a relaxation equivalent to 50% of the maximal relaxation induced by nitroprusside) was determined for each tissue.

Assay [2] relates to Spontaneously Hypertensive Rats. Kind of assay: Spontaneously Hypertensive Rat (SHR) Test, hemodynamics in anesthetized rats. In kind it is in vivo, Spontaneously Hypertensive Rat (Sprague Dawley). The note with it: for HR (Heart Rate: change from basal) / LVPT (time for Left Ventricular Pressure to decay from peak to 50%, % of basal) / MBP (Mean Blood Pressure: change from basal) / RT64 (change in time from maximal relaxation, % of basal) / dP/dT40 (change in rate of systolic pressure increase of left ventricle measured at 40 mm Hg from basal): anesthetized SHR; for effect on blood pressure (in words) / effect on dP/dT40 (in words) / effect on heart rate (in words) / effect on myocardial relaxation time constants (in words): SHR. The procedure: Male Retired Breeder Spontaneously Hypertensive Rats (SHR) (Sprague Dawley, 250-350 g) are anesthetized by i.p. injection of Sodium Thiopental 50 mg/kg. A catheter is inserted into the duodenum for maintenance of anesthesia throughout the experiment. A tube is inserted through a lateral incision in the trachea. The left carotid artery is exposed and a Millar SPR-249 (2-F) pressure probe is inserted and passed into the left ventricle of the heart. Left ventricular pressure (LVP), the first differential of the LVP (+dP/dT,-dP/dT), the left ventricular end diastolic pressure (LVEDP) and the differential of the increase in LVP measured at a constant pressure of 40 mm Hg (dP/dT40) are measured via this probe. In addition to these parameters, two indices of myocardial diastolic relaxation are measured namely the RT64 (time in msec from the peak derivative of maximal relaxation to 64% of that value) and the Left Ventricular Pressure Time Constant (LVPT), the half-time for decay of the LVP from peak pressure to 50% of that pressure. […] Results also are shown graphically on a Gould RS3800 Recorder. A saline filled cannula is passed into the femoral vein for infusion of drugs and one is placed into the femoral artery for measurement and recording or arterial blood pressure (Statham P23Db pressure transducer). From this signal the diastolic, systolic and mean blood pressure are derived as well as the heart rate. After surgery, the preparation is left to stabilize for 45 minutes after which compounds, dissolved in polyethylene glycol, are slowly infused with a Sage Instruments Infusion pump into the femoral vein. […] After completion of the last infusion, hemodynamic parameters are observed over 30 min and then a standard dose of 3.0 mg/kg milrinone is infused (over 5 min) to test preparation responsiveness. In the SHR, the following results were obtained for several known cardiovascular agents and for the compound of Examples 10,11,15 and 16.

In the case of `COC(=O)C1=C(C)NC(C)=C(C(=O)OCCNC(=O)COc2ccc(-c3cc(C#N)c(=O)[nH]c3C)cc2)C1c1cccc([N+](=O)[O-])c1` (racemic) [Example 10, (±)-2,6-dimethyl-3-carbomethoxy-4-(3-nitrophenyl)-5-{4-[1,2-dihydro-2-oxo-3-cyano-6-methyl-5(1H)-pyridy]phenoxymethylenecarboxyamidoethyloxycarbonyl}-1,4-dihydropyridine], the Emax at 100 µM in assay [1] (highest dose tested (100 micromolar), read-out: maximal response (relaxation, % of maximal relaxation by nitroprusside)) came to 96%. In addition, in assay [1] (phenylephrine 1×10^-7 M contracted, methylene blue and propranolol present, read-out: IC50 (concentration producing relaxation equivalent to 50% of the maximal relaxation induced by nitroprusside)), the IC50 is 2100 nM. Further, in assay [2] (0.3 mg/kg i.v.), the “HR (Heart Rate: change from basal)” value is listed as -1.8%; the “LVPT (time for Left Ventricular Pressure to decay from peak to 50%, % of basal)” value is listed as -5.1%; the “MBP (Mean Blood Pressure: change from basal)” value was -2.6%; the “RT64 (change in time from maximal relaxation, % of basal)” value is reported as -2.6%. Moreover, the “dP/dT40 (change in rate of systolic pressure increase of left ventricle measured at 40 mm Hg from basal)” value in assay [2] (0.3 mg/kg i.v.) is on record as 0%. In addition, in assay [2] (1.0 mg/kg i.v.), the “HR (Heart Rate: change from basal)” value is reported as -2.5%; the “LVPT (time for Left Ventricular Pressure to decay from peak to 50%, % of basal)” value is given as -7.4%; the “MBP (Mean Blood Pressure: change from basal)” value is -3.8%; the “RT64 (change in time from maximal relaxation, % of basal)” value is reported as -5.2%. Further, the “dP/dT40 (change in rate of systolic pressure increase of left ventricle measured at 40 mm Hg from basal)” value in assay [2] (1.0 mg/kg i.v.) is recorded as 1.5%. In assay [2] (3.0 mg/kg i.v.), the “HR (Heart Rate: change from basal)” value came out at 1.1%; the “LVPT (time for Left Ventricular Pressure to decay from peak to 50%, % of basal)” value is listed as -14%; the “MBP (Mean Blood Pressure: change from basal)” value is given as -6.3%; the “RT64 (change in time from maximal relaxation, % of basal)” value is reported as -13.2%. The “dP/dT40 (change in rate of systolic pressure increase of left ventricle measured at 40 mm Hg from basal)” value in assay [2] (3.0 mg/kg i.v.) came out at 4.2%. Moreover, in assay [2] (10 mg/kg i.v.), the “HR (Heart Rate: change from basal)” value was 6.4%; the “LVPT (time for Left Ventricular Pressure to decay from peak to 50%, % of basal)” value is on record as -25%; the “MBP (Mean Blood Pressure: change from basal)” value was -23%; the “RT64 (change in time from maximal relaxation, % of basal)” value is on record as -19.3%. Besides, the “dP/dT40 (change in rate of systolic pressure increase of left ventricle measured at 40 mm Hg from basal)” value in assay [2] (10 mg/kg i.v.) amounted to 24.7%. Also, in assay [2] (0.3 to 10 mg/kg i.v.), the “effect on blood pressure (in words)” value is given as “hypotension”, the “effect on dP/dT40 (in words)” value is reported as “an increase in dP/dT40”, the “effect on heart rate (in words)” value is reported as “little change in heart rate” and the “effect on myocardial relaxation time constants (in words)” value was “reduction in the time constants for myocardial relaxation”.
For the compound `Cc1[nH]c(=O)c(C#N)cc1-c1ccncc1` [Milrinone], in assay [2] (0.3 mg/kg i.v.), the “HR (Heart Rate: change from basal)” value is recorded as 10%; the “LVPT (time for Left Ventricular Pressure to decay from peak to 50%, % of basal)” value is listed as -15.5%; the “MBP (Mean Blood Pressure: change from basal)” value is listed as -10%; the “RT64 (change in time from maximal relaxation, % of basal)” value was -13.7%. In assay [2] (0.3 mg/kg i.v.), the “dP/dT40 (change in rate of systolic pressure increase of left ventricle measured at 40 mm Hg from basal)” value is on record as 27%. In assay [2] (1.0 mg/kg i.v.), the “HR (Heart Rate: change from basal)” value is given as 12.4%; the “LVPT (time for Left Ventricular Pressure to decay from peak to 50%, % of basal)” value is -22%; the “MBP (Mean Blood Pressure: change from basal)” value is recorded as -29%; the “RT64 (change in time from maximal relaxation, % of basal)” value is -20.5%. The “dP/dT40 (change in rate of systolic pressure increase of left ventricle measured at 40 mm Hg from basal)” value in assay [2] (1.0 mg/kg i.v.) was found to be 28.3%. For the same compound, in assay [2] (3.0 mg/kg i.v.), the “HR (Heart Rate: change from basal)” value amounted to 16.2%; the “LVPT (time for Left Ventricular Pressure to decay from peak to 50%, % of basal)” value was -30%; the “MBP (Mean Blood Pressure: change from basal)” value is -29%; the “RT64 (change in time from maximal relaxation, % of basal)” value was -36%. Also, the “dP/dT40 (change in rate of systolic pressure increase of left ventricle measured at 40 mm Hg from basal)” value in assay [2] (3.0 mg/kg i.v.) came to 34%. Also, in assay [2] (0.3 to 3 mg/kg i.v.), the “effect on blood pressure (in words)” value is given as “hypotension”, the “effect on dP/dT40 (in words)” value is listed as “an increase in dP/dT40”, the “effect on heart rate (in words)” value is “tachycardia” and the “effect on myocardial relaxation time constants (in words)” value is recorded as “a decrease in myocardial relaxation time constants (increased rate of relaxation)”.
